In patent US20160115540A1, “PRODRUGS AND DRUGS” (Biogen MA Inc., priority 2013, published 2016):
Counter-ions that a name gives are not always drawn.

Test system: jejunum
Experiment: Transcriptional profiling on Affymetrix GeneChips, single dose, naïve mice: jejunum
Type: in vivo, C57BL/6 mice
Conditions: for Number of differentially expressed genes identified: Jenjunum: Naïve, Single Dose
Experimental: Treated mice were sacrificed at 2, 7, or 12 hours. Tissues (liver, spleen, kidney, jejunum, cortex, hippocampus, striatum and whole blood) were collected and analyzed by transcriptional profiling on mouse Affymetrix GeneChips.
Tissues (liver, spleen, kidney, jejunum, cortex, hippocampus, striatum and whole blood) were collected and analyzed by transcriptional profiling on mouse Affymetrix GeneChips.
Animals were exposed to CO2 and whole blood collected via cardiac puncture. Two 100 μl aliquots of whole blood were collected in 1.5 mL microcentrifuge tubes and snap frozen in liquid nitrogen. Peripheral (liver, spleen, kidney and jejunum) and CNS brain (cerebellum, hippocampus, striatum and cortex) tissues were harvested and snap frozen in liquid nitrogen, with special care taken to collect tissues of similar size and from the same location. All samples were stored at −80° C. until RNA extraction was conducted.
For RNA preparation, frozen tissues were placed in 2 mL RNAse-free 96-well blocks with 1.5 mL QIAzol Lysis Reagent (QIAgen) and a 3.2 mm stainless steel bead (BioSpec Products, Bartlesville, Okla.). Tissues were disrupted for four cycles of 45 seconds in a Mini-Beadbeater (Biospec Products). RNA was extracted in chloroform and the aqueous phase was mixed with an equal volume of 70% ethanol. Extracted RNA was applied to RNeasy 96 plates and purified by the spin method according to the manufacturer's protocol (RNeasy 96 Universal Tissue Protocol, QIAgen, Hilden Germany).
Automated sample amplifications and biotin labelings were carried out using the NuGEN Ovation RNA Amplification system V2 (Cat #3100), Ovation WB reagent (Cat #1300) and Encore Biotin module (Cat #4200) (NuGEN Technologies, Inc, San Carlos, Calif.) according to manufacturer's recommendations using an Arrayplex automated liquid handler (Beckman Coulter, Indianapolis, Ind.). Two micrograms of biotin labeled sscDNA probe were hybridized to Affymetrix GeneChip Affymetrix HT_MG-430_PM plate arrays with modified conditions as described in Allaire et al. Washing and staining of the hybridized arrays were completed as described in the GeneChip Expression analysis technical manual for HT plate arrays using the Genechip® Array Station (Affymetrix, Santa Clara, Calif.) with modifications as described in Allaire et al. The processed GeneChip® plate arrays were scanned using GeneTitan scanner (Affymetrix, Santa Clara, Calif.).
Affymetrix scans were subject to quality control (QC) measures. These tests included a visual inspection of the distribution of raw signal intensities and an assessment of RNA degradation, relative log expression (RLE), and normalized unsealed standard error (NUSE). All sample scans that passed these QC metrics were included in the analysis.
All CEL files were subjected to GC-content-based Robust Multi-array Average (GCRMA) normalization (version 2.20.0) (Irizarry R A, et al. Nucleic Acids Res 2003; 31:e15; Li C, et al. Genome Biol 2001; 2:[…]0032). Expression levels were log (base 2) transformed.
All calculations and analyses were carried out using R (version 2.11.1) and Bioconductor computational tools (Gentleman R. Springer Science+Business Media 2005).

COC(=O)/C=C/C(=O)OC [DMF, dimethyl fumarate]
Pir (1429001_PM_at) differential expression (Jejunum, 12 hr): 3.79 | Setd4 (1435405_PM_at) differential expression (Jejunum, 12 hr): 1.66 | Slc5a4b (1422757_PM_at) differential expression (Jejunum, 12 hr): 2.21 | Ugt2b5 (1419622_PM_at) differential expression (Jejunum, 12 hr): 4.92 | Ugt2b36 (1455595_PM_at) differential expression (Jejunum, 12 hr): 2.94 | Number of differentially expressed genes identified: Jenjunum (100 mpk DMF-vs-100 mpk MMF, 2 h after last dosing): 1 | Number of differentially expressed genes identified: Jenjunum (100 mpk DMF-vs-100 mpk MMF, 7 h after last dosing): 2 | Number of differentially expressed genes identified: Jenjunum (100 mpk DMF-vs-100 mpk MMF, 12 h after last dosing): 0 | Number of differentially expressed genes identified: Jenjunum (100 mpk, vs Vehicle, 2 h after last dosing): 62 | Number of differentially expressed genes identified: Jenjunum (100 mpk, vs Vehicle, 7 h after last dosing): 44 | Number of differentially expressed genes identified: Jenjunum (100 mpk, vs Vehicle, 12 h after last dosing): 37 | FC 9130221J17Rik (1443159_PM_at) (jejunum, 100DMF-vs-Veh, 2 h): 2.30 | FC Acss2 (1446542_PM_at) (jejunum, 100DMF-vs-Veh, 2 h): 1.68 | FC Akr1b8 (1448894_PM_at) (jejunum, 100DMF-vs-Veh, 2 h): 7.35 | FC Akr1c13 (1418672_PM_at) (jejunum, 100DMF-vs-Veh, 2 h): 1.62 | FC Akr1c19 (1455454_PM_at) (jejunum, 100DMF-vs-Veh, 2 h): 2.45 | FC Areg (1421134_PM_at) (jejunum, 100DMF-vs-Veh, 2 h): 3.58 | FC Cbr1 (1460196_PM_at) (jejunum, 100DMF-vs-Veh, 2 h): 1.55 | FC Cbr3 (1427912_PM_at) (jejunum, 100DMF-vs-Veh, 2 h): 54.72 | FC Ces1e (1419510_PM_at) (jejunum, 100DMF-vs-Veh, 2 h): 1.85 | FC Ces1f (1424266_PM_s_at) (jejunum, 100DMF-vs-Veh, 2 h): 2.48 | FC Ces1g (1449486_PM_at) (jejunum, 100DMF-vs-Veh, 2 h): 4.06 | FC Dnase2a (1430135_PM_at) (jejunum, 100DMF-vs-Veh, 2 h): 1.77 | FC Dppa5a (1416552_PM_at) (jejunum, 100DMF-vs-Veh, 2 h): 3.07 | FC Dusp4 1428834_PM_at (jejunum, 100DMF-vs-Veh, 2 h): 1.51 | FC Entpd5 (1433763_PM_at) (jejunum, 100DMF-vs-Veh, 2 h): 1.53 | FC Ereg (1419431_PM_at) (jejunum, 100DMF-vs-Veh, 2 h): 2.50 | FC Ero1l (1419030_PM_at) (jejunum, 100DMF-vs-Veh, 2 h): 1.92 | FC Ero1l (1449324_PM_at) (jejunum, 100DMF-vs-Veh, 2 h): 1.50 | FC Esd (1441604_PM_at) (jejunum, 100DMF-vs-Veh, 2 h): 1.71 | FC Fam13a (1456611_PM_at) (jejunum, 100DMF-vs-Veh, 2 h): 1.54 | FC Gclc (1424296_PM_at) (jejunum, 100DMF-vs-Veh, 2 h): 4.25 | FC Gclc (1455959_PM_s_at) (jejunum, 100DMF-vs-Veh, 2 h): 3.13 | FC Gsr (1421816_PM_at) (jejunum, 100DMF-vs-Veh, 2 h): 2.23 | FC Gss (1441931_PM_x_at) (jejunum, 100DMF-vs-Veh, 2 h): 1.95 | FC Gss (1448273_PM_at) (jejunum, 100DMF-vs-Veh, 2 h): 1.67 | FC Gsta2 (1421040_PM_a_at) (jejunum, 100DMF-vs-Veh, 2 h): 3.82 | FC Gsta3 (1423436_PM_at) (jejunum, 100DMF-vs-Veh, 2 h): 3.23 | FC Gsta3 (1423437_PM_at) (jejunum, 100DMF-vs-Veh, 2 h): 4.03 | FC Gstm1 (1416416_PM_x_at) (jejunum, 100DMF-vs-Veh, 2 h): 2.30 | FC Gstm1 (1425627_PM_x_at) (jejunum, 100DMF-vs-Veh, 2 h): 2.57 | FC Gstm1 (1448330_PM_at) (jejunum, 100DMF-vs-Veh, 2 h): 2.47 | FC Gstm3 (1427473_PM_at) (jejunum, 100DMF-vs-Veh, 2 h): 2.37 | FC Gstm3 (1427474_PM_s_at) (jejunum, 100DMF-vs-Veh, 2 h): 1.56 | FC LOC100504040 (1457279_PM_at) (jejunum, 100DMF-vs-Veh, 2 h): 2.18 | FC Mafg (1448916_PM_at) (jejunum, 100DMF-vs-Veh, 2 h): 2.20 | FC Nqo1 (1423627_PM_at) (jejunum, 100DMF-vs-Veh, 2 h): 2.16 | FC Osgin1 (1424022_PM_at) (jejunum, 100DMF-vs-Veh, 2 h): 2.08 | FC Prss8 (1418320_PM_at) (jejunum, 100DMF-vs-Veh, 2 h): 2.60 | FC Ptk6 (1442923_PM_at) (jejunum, 100DMF-vs-Veh, 2 h): −2.42 | FC Setd4 (1425239_PM_at) (jejunum, 100DMF-vs-Veh, 2 h): 2.09 | FC Setd4 (1435405_PM_at) (jejunum, 100DMF-vs-Veh, 2 h): 1.91 | FC Setd4 (1460373_PM_a_at) (jejunum, 100DMF-vs-Veh, 2 h): 1.91 | FC Slc35e3 (1428805_PM_at) (jejunum, 100DMF-vs-Veh, 2 h): 1.53 | FC Slc40a1 (1417061_PM_at) (jejunum, 100DMF-vs-Veh, 2 h): 2.33 | FC Srr (1453421_PM_at) (jejunum, 100DMF-vs-Veh, 2 h): 1.99 | FC Srxn1 (1425351_PM_at) (jejunum, 100DMF-vs-Veh, 2 h): 1.71 | FC Tifa (1426501_PM_a_at) (jejunum, 100DMF-vs-Veh, 2 h): −2.43
